“Also recorded” adds a separate entry of the source.

Data set [1] has as its system participants with mild to moderate psoriasis. Put plainly: Liver function laboratory tests in the clinical study. The format is in vivo, human. The protocol:
(§1) Two study interventions were used, Compound 1 and placebo. The Compound 1 intervention comprised 4× tablets of Compound 1 50 mg twice daily, i.e. 200 mg BID, for 4 weeks. The placebo intervention was 4× tablets of placebo twice daily for 4 weeks. Tablets were administered orally.
Laboratory tests (from at least 10 hours under fasting conditions for blood samples) included: • Hematology: red blood cell count, hematocrit, hemoglobin, white blood cell count with differential count (neutrophils, eosinophils, basophils, monocytes, and lymphocytes), platelets. • Biochemistry: • Plasma/serum electrolytes: sodium, potassium, chloride, calcium, • Liver function: AST, ALT, alkaline phosphatase, GGT, total and conjugated bilirubin, • Renal function: urea, creatinine, • Metabolism: glucose, albumin, total proteins, total cholesterol, triglycerides, • Potential muscle toxicity: CK, • International normalized ratio (INR), and activated partial thromboplastin time (aPTT), • C-reactive protein; the CRP levels were evaluated by an independent investigator who is not involved in the study to protect the blinding of the study. CRP values were provided by the independent investigator to the investigator in case of medical need. • Procalcitonin at screening, week 2 and EOS. • QuantiFERON-TB Gold (QFT) test.
(§2) For AESI in this study, the Sponsor was to be informed immediately (i.e., within 24 hours), as per SAE notification guidelines, even if a seriousness criterion was not met, using the corresponding screens in the eCRF. • ALT increased >3×ULN. • QT prolongation (QTcF≥500 milli seconds [ms]) and/or a delta QTc change from baseline>60 ms (12-lead ECG). In the event of prolongation of QTc interval (automatic measurement)≥500 ms, confirmed by a manual reading by the Investigator or a physician delegated by the Investigator using the Fridericia formula for correcting QT, the participant was placed under supervision in a specialized setting. Investigational medicinal product administration was stopped, and appropriate blood samples collected. Subsequent ECG monitoring of the participant was then performed on a regular and clinically responsible basis until the QTc interval returned to a safe value as determined by the Investigator in agreement with the Sponsor. • Photosensitivity (Grade 2 and above AE due to sun exposure). • Pregnancy. • Symptomatic overdose. • An overdose (accidental or intentional) with the IMP is an event suspected by the Investigator or spontaneously notified by the participant (not based on systematic pills count) and defined as at least twice the intended dose within the intended therapeutic interval, adjusted according to the tested drug.
Once the participant was included in the clinical trial, the following laboratory abnormalities were monitored, documented, and managed: • Neutropenia, characterized as neutrophils <1500/mm^3 or according to ethnic group (recorded as an AE only if at least 1 of the criteria listed above was met) • Thrombocytopenia, characterized as platelets <100,000/mm^3 confirmed with or without bleeding (recorded as an AE only if at least 1 of the criteria listed above was met) • Increase of ALT. Patients were monitored where 3 ULN<ALT≤5 ULN and total bilirubin was ≤2 ULN. […]

Data set [2] shares this test system. As to the kind of experiment: 12-lead ECG (QTcF) in the clinical study. The format is in vivo, human. The protocol: as §1
The following electrocardiogram data were recorded: • Standard 12-lead ECGs (safety ECGs) were recorded after at least 10 minutes in supine position using an electrocardiographic device. The electrodes were positioned at the same place for each ECG recording throughout the study (e.g., attachment sites of the leads were visualized on a transparent paper). • Triplicate ECGs were recorded within 5 minutes with at least 1 min between 2 replicates for all ECG. • Each ECG consisted of a 10-second recording of the 12 leads simultaneously, leading to: • A single 12-lead ECG (50 mm/s, 10 mm/mV) printout with heart rate, PR, QRS, QT, QTc automatic correction evaluation (by the ECG device), including date, time, and number of the participant, signature of the research physician, and at least 3 complexes for each lead. The Investigator's medical opinion and automatic values were recorded in the eCRF. This printout was retained at the site. A second printout was performed also, if needed. • A digital storage that enables eventual further reading by an ECG central laboratory: each digital file will be identified by theoretical time (day and time Dxx Txx Hxx), real date and real time (recorder time), Sponsor study code, participant number (i.e., 3 digits), and site and country numbers, if relevant. The digital recording, data storage, and transmission (whenever requested) need to comply with all applicable regulatory requirements (i.e., FDA 21 code of federal regulations [CFR], Part 11).
as §2

Take `CN1C(=O)c2cccc(OC(F)F)c2[C@H]2C[C@@H]1c1nc3ccc(-c4cnc(C5(N)CCC5)nc4)cc3n12` [Compound 1, (7R,14R)-11-[2-(1-aminocyclobutyl)pyrimidin-5-yl]-1-(difluoromethoxy)-6-methyl-6,7-dihydro-7,14-methanobenzimidazo[1,2-b][2,5]benzodiazocin-5(14H)-one]: the “potentially clinically significant abnormality (PCSA) for ALT increase” value in data set [1] (200 mg BID) is recorded as “no PCSA for ALT increase”. For the same compound, the “total bilirubin, first participant” value in data set [1] (200 mg BID, Day 8, baseline 1.5 ULN) came out at 1.67 ULN. Moreover, the “total bilirubin, second participant” value in data set [1] (200 mg BID, day not given, baseline 1.3 ULN) was 1.56 ULN. Further, in data set [1] (200 mg BID, one single occasion), the “Number of participants with total bilirubin increased >1.5 ULN” value is recorded as “two”. Further, the “liver function tests / impact on liver parameters (in words)” value in data set [1] (4-week clinical trial) is “no signal for risks on liver function tests; also recorded: neither was any significant impact on cardiac parameters (e.g., QTcF interval) or liver parameters (e.g., AST, ALT, or bilirubin levels) observed”. For the same compound, the “QTcF change from baseline >60 msec and/or QTcF>480 msec” value in data set [2] (200 mg BID) is “no QTcF change from baseline >60 msec and/or QTcF>480 msec”. Also, the “QTcF change from baseline, one participant” value in data set [2] (200 mg BID, Day 8, baseline 426 msec) was found to be 33 ms. Also, the “Number of participants with QTcF>450 msec” value in data set [2] (200 mg BID, one single occasion on Day 8) was “One”. The “QTcF, one participant” value in data set [2] (200 mg BID, one single occasion on Day 8, baseline 426 msec) is 459 ms. Further, the “risk of QTc prolongation / impact on cardiac parameters (in words)” value in data set [2] (4-week clinical trial) is listed as “No indication for risks on QTc prolongation was observed; also recorded: neither was any significant impact on cardiac parameters (e.g., QTcF interval)”.

Values taken from US20260294906A1, “TREATING PSORIASIS USING A SMALL MOLECULE INHIBITOR OF TUMOR NECROSIS FACTOR ALPHA” (SANOFI, priority 2023, published 2026).
